Experimental data as given in BindingDB's records for doi:10.1021/jm960128k (University of Illinois At Chicago, 1996).
pIC50: −log10 of the molar value.

Target: T1, Dimer of Gag-Pol polyprotein [489-587] (Human immunodeficiency virus 1, UniProt P12497)
T1 construct: 489-587
Experiment: Protease Inhibition Assay
Details: pH 5.5; 30 °C
Method: The IC50 values for the compounds were determined using purified HIV-1 Protease. Inhibition of the cleavage of the peptide H-Val-Ser-Gln-Asn-(L-beta-napthylalanine)-Pro-Ile-Val-OH was assessed at 30 °C, pH = 5.5 with [Enzyme] = 30 pM for 1 h, using HPLC with UV detection for quantification of the products. For the IC50 data a substrate concentration of 0.4 mg/mL was used, and data was fit to a four parameter sigmoidal equation.

CC(C)(C)NC(=O)[C@@H]1C[C@@H]2CCCC[C@@H]2CN1C[C@@H](O)[C@H](Cc1ccccc1)NC(=O)O[C@@H]1CO[C@@H]2CCO[C@@H]21 [(3R,3aS,6aR)-hexahydrofuro[3,2-b]furan-3-yl N-[(2S,3R)-4-[(3S,4aS,8aS)-3-(tert-butylcarbamoyl)-decahydroisoquinolin-2-yl]-3-hydroxy-1-phenylbutan-2-yl]carbamate]
pIC50: < 5.52
